Test results from PubChem BioAssay (NCI).
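Five concentrations, 48 hours, 96-well plates. TGI is the concentration that stops growth completely.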

Columns and labels:
Assay in all cases: NCI tumour cell line growth inhibition, 48 h
[1] = test system: HS 578T breast
[2] = test system: IGROV1 ovarian
[3] = test system: NCI-H226 lung
[4] = test system: OVCAR-8 ovarian
[5] = test system: A549 NSCLC
[6] = test system: KM12 colon
[7] = test system: SK-MEL-5 melanoma
[8] = test system: CAKI-1 renal
[9] = test system: 786-0 renal
[10] = test system: NCI-H460 lung
[11] = test system: UACC-62 melanoma
[12] = test system: TK-10 renal
[13] = test system: MCF7 breast
[14] = test system: BT-549 breast
[15] = test system: HCC-2998 colon
[16] = test system: SF-295 CNS
[17] = test system: SR leukemia
[18] = test system: U251 CNS
[19] = test system: SK-MEL-28 melanoma
[20] = test system: HT29 colon
[21] = test system: M14 melanoma
[22] = test system: SN12C renal
[23] = test system: NCI/ADR-RES ovarian
[24] = test system: UO-31 renal
[25] = test system: DU-145 prostate
[26] = test system: SF-268 CNS
[27] = test system: MDA-MB-231 breast
[28] = test system: MOLT-4 leukemia
[29] = test system: COLO 205 colon
[30] = test system: OVCAR-4 ovarian
[31] = test system: NCI-H522 lung
[32] = test system: CCRF-CEM leukemia
[33] = test system: HOP-62 NSCLC
[34] = test system: EKVX NSCLC
[35] = test system: HOP-92 NSCLC
[36] = test system: MALME-3M melanoma
[37] = test system: HCT-15 colon
[38] = test system: PC-3 prostate
[39] = test system: SK-MEL-2 melanoma
[40] = test system: OVCAR-3 ovarian
[41] = test system: UACC-257 melanoma
[42] = test system: NCI-H23 lung
[43] = test system: MDA-N
[44] = test system: RPMI-8226 leukemia
[45] = test system: ACHN renal
[46] = test system: SNB-19 CNS
[47] = test system: T-47D breast
[48] = test system: HL-60(TB) leukemia
[49] = test system: K-562 leukemia
[50] = test system: SF-539 CNS
[51] = test system: SK-OV-3 ovarian
[52] = test system: MDA-MB-435
[53] = test system: SNB-75 CNS
[54] = test system: RXF 393 renal
[55] = test system: HCT-116 colon
[56] = test system: OVCAR-5 ovarian
[57] = test system: LOX IMVI melanoma
[58] = test system: A498 renal
[59] = test system: SW-620 colon

Question: Which results are given for `CC(C)(O)C1CC[C@]2(C)CC[C@]3(C)[C@H](CC[C@@H]4[C@@]5(C)CC[C@H](O)C(C)(C)[C@@H]5CC[C@]43C)[C@@H]12` (stereo partly drawn)?
Answer: TGI [1]: 68.1 µM; TGI [2]: 85.8 µM; TGI [3]: > 100 µM; TGI [4]: > 100 µM; TGI [5]: > 100 µM; TGI [6]: 89.3 µM; TGI [7]: > 100 µM; TGI [8]: 45.6 µM; TGI [9]: 78.1 µM; TGI [10]: > 100 µM; TGI [11]: > 100 µM; TGI [12]: 53.3 µM; TGI [13]: > 100 µM; TGI [14]: 60.9 µM; TGI [15]: 51.9 µM; TGI [16]: 57.6 µM; TGI [17]: > 100 µM; TGI [18]: > 100 µM; TGI [19]: 67.7 µM; TGI [20]: > 100 µM; TGI [21]: 95.4 µM; TGI [22]: > 100 µM; TGI [23]: 82.4 µM; TGI [24]: > 100 µM; TGI [25]: 57.9 µM; TGI [26]: > 100 µM; TGI [27]: > 100 µM; TGI [28]: > 100 µM; TGI [29]: 92.2 µM; TGI [30]: 78.3 µM; TGI [31]: 73.2 µM; TGI [32]: > 100 µM; TGI [33]: 84.3 µM; TGI [34]: 44.5 µM; TGI [35]: 44.1 µM; TGI [36]: 57.7 µM; TGI [37]: > 100 µM; TGI [38]: > 100 µM; TGI [39]: 62.5 µM; TGI [40]: 50.7 µM; TGI [41]: 50.2 µM; TGI [42]: > 100 µM; TGI [43]: > 100 µM; TGI [44]: > 100 µM; TGI [45]: 71.3 µM; TGI [46]: > 100 µM; TGI [47]: 66.2 µM; TGI [48]: > 100 µM; TGI [49]: > 100 µM; TGI [50]: 55.4 µM; TGI [51]: 49.3 µM; TGI [52]: > 100 µM; TGI [53]: 45.7 µM; TGI [54]: > 100 µM; TGI [55]: 59.4 µM; TGI [56]: 75.9 µM

Question: For `O=C1/C(=C\c2cccc(Oc3ccccc3)c2)S(=O)(=O)C(c2ccccc2)N1c1cc(Cl)ccc1Cl` (stereo not drawn), which TGI [1] is on record?
Answer: Its TGI is 88.1 µM.

Question: And the TGI [2]?
Answer: Its TGI is 56.2 µM.

Question: And the TGI [4]?
Answer: Its TGI is 32.7 µM.

Question: And the TGI [5]?
Answer: The TGI was > 100 µM.

Question: And the TGI [6]?
Answer: The TGI was 76.9 µM.

Question: What about the TGI [7] of the same compound?
Answer: Its TGI is 33.3 µM.

Question: What about the TGI [8] of the same compound?
Answer: Its TGI is > 100 µM.

Question: And the TGI [9]?
Answer: Its TGI is 37.4 µM.

Question: And the TGI [10]?
Answer: The TGI was > 100 µM.

Question: What about the TGI [11] of the same compound?
Answer: The TGI was 36.7 µM.

Question: And the TGI [12]?
Answer: The TGI was 57.3 µM.

Question: What about the TGI [13] of the same compound?
Answer: The TGI was 45.1 µM.

Question: And the TGI [14]?
Answer: Its TGI is 35.6 µM.

Question: And the TGI [15]?
Answer: Its TGI is 56.6 µM.

Question: And the TGI [16]?
Answer: The TGI was 33.1 µM.

Question: And the TGI [17]?
Answer: The TGI was > 100 µM.

Question: And the TGI [18]?
Answer: Its TGI is > 100 µM.

Question: And the TGI [57]?
Answer: The TGI was 23.8 µM.

Question: What about the TGI [19] of the same compound?
Answer: Its TGI is 36.7 µM.

Question: What about the TGI [20] of the same compound?
Answer: The TGI was > 100 µM.

Question: And the TGI [21]?
Answer: Its TGI is 44.1 µM.

Question: And the TGI [22]?
Answer: The TGI was 35 µM.

Question: What about the TGI [23] of the same compound?
Answer: Its TGI is 94.4 µM.

Question: And the TGI [24]?
Answer: Its TGI is 39.6 µM.

Question: And the TGI [25]?
Answer: Its TGI is 76.7 µM.

Question: And the TGI [26]?
Answer: Its TGI is 42.3 µM.

Question: What about the TGI [27] of the same compound?
Answer: The TGI was > 100 µM.

Question: And the TGI [28]?
Answer: Its TGI is > 100 µM.

Question: And the TGI [58]?
Answer: The TGI was > 100 µM.

Question: What about the TGI [29] of the same compound?
Answer: The TGI was 48.4 µM.

Question: What about the TGI [30] of the same compound?
Answer: Its TGI is > 100 µM.

Question: And the TGI [31]?
Answer: Its TGI is 40 µM.

Question: What about the TGI [32] of the same compound?
Answer: Its TGI is 40.7 µM.

Question: And the TGI [33]?
Answer: The TGI was 43.3 µM.

Question: What about the TGI [34] of the same compound?
Answer: The TGI was > 100 µM.

Question: And the TGI [35]?
Answer: The TGI was 40.4 µM.

Question: And the TGI [36]?
Answer: The TGI was 42.4 µM.

Question: What about the TGI [37] of the same compound?
Answer: Its TGI is 74.6 µM.

Question: What about the TGI [38] of the same compound?
Answer: The TGI was > 100 µM.

Question: What about the TGI [59] of the same compound?
Answer: The TGI was 10.8 µM.

Question: And the TGI [39]?
Answer: The TGI was 76.9 µM.

Question: And the TGI [40]?
Answer: The TGI was 41.9 µM.

Question: And the TGI [41]?
Answer: Its TGI is 47.9 µM.

Question: What about the TGI [42] of the same compound?
Answer: Its TGI is 44.3 µM.

Question: What about the TGI [43] of the same compound?
Answer: The TGI was 28.8 µM.

Question: What about the TGI [44] of the same compound?
Answer: The TGI was > 100 µM.

Question: And the TGI [45]?
Answer: Its TGI is 44.6 µM.

Question: What about the TGI [46] of the same compound?
Answer: The TGI was 35.7 µM.

Question: What about the TGI [47] of the same compound?
Answer: Its TGI is 82.4 µM.

Question: And the TGI [49]?
Answer: The TGI was > 100 µM.

Question: What about the TGI [50] of the same compound?
Answer: The TGI was > 100 µM.

Question: What about the TGI [51] of the same compound?
Answer: The TGI was 88.3 µM.

Question: And the TGI [52]?
Answer: The TGI was 36.5 µM.

Question: And the TGI [53]?
Answer: The TGI was 69.6 µM.

Question: What about the TGI [54] of the same compound?
Answer: Its TGI is 33.8 µM.

Question: And the TGI [55]?
Answer: Its TGI is 21.2 µM.

Question: What about the TGI [56] of the same compound?
Answer: The TGI was 58.6 µM.
